Here are results for three compounds from publication PMC8076879 (Acta Pharmacologica Sinica, 2021).

For data set [1] the following is noted: cited from earlier work.
Data set [2] can be described thus: Cytotoxicity in HEK293T cells, CCK8 assay. In kind it is cell-based. Conditions: human.
The conditions of data set [3]: cited from earlier work. The source holds these as a separate data set.
The test system of the next data set is SARS-CoV-2. The following applies: read-out: anti-SARS-CoV-2 EC50 (reported); cited from earlier work.
Data set [4] in a line: Cytotoxicity in Huh-7 cells, CCK8 assay. The following applies: human. In kind it is cell-based.
Another data set is described as follows: in vitro. Conditions: African green monkey.

For the compound `O[C@H]1[C@H]2c3cc4c(cc3CN3CCC(=C[C@@H]1O)[C@H]23)OCO4` [lycorine], the “crossing of the blood-brain barrier” value in data set [1] was “able to cross the blood-brain barrier”. Moreover, the CC50 in data set [2] was 1.04 ± 0.0734 µM; in data set [4], 0.834 ± 0.063 µM; in the data set “in vitro”, greater than 1000 µM. The “toxicity in animal toxicological experiments” value in data set [3] is “low toxicity and mild side effects”. The EC50 (as a rule, the concentration at which the effect is half-maximal) in the data set with SARS-CoV-2 was 0.31 µM.

Turning to `CC[C@H]1CN2CCc3cc(OC)c(OC)cc3[C@@H]2C[C@@H]1C[C@H]1NCCc2cc(OC)c(OC)cc21` [emetine], the figures for the CC50 (in data set [2]; in data set [4]; in the data set “in vitro”) were 0.0378 ± 0.000562 µM, 0.0334 ± 0.000617 µM and 2.17 ± 0.258 µM, respectively. For the same compound, the 50% effective concentration (EC50) in the data set with SARS-CoV-2 was 0.46 µM.

`CC[C@H]1CN2CCc3cc(OC)c(OC)cc3[C@@H]2C[C@@H]1C[C@H]1NCCc2cc(O)c(OC)cc21` [cephaeline]: the figures for the CC50 (in data set [2]; in data set [4]; in “in vitro”) were 2 ± 0.468 µM, 3.04 ± 1.7 µM and 49 ± 46.3 µM, respectively.
